Reference: ChEMBL document CHEMBL5365419, “Identification of a Protein Arginine Methyltransferase 7 (PRMT7)/Protein Arginine Methyltransferase 9 (PRMT9) Inhibitor” (J Med Chem, 2023)
Calls of active or inactive are those of the source. No cut-off for these calls is given here.

Key:
[1] = target: T1, Histone-lysine N-methyltransferase EHMT2 (Homo sapiens) (UniProt Q96KQ7); assay: Inhibition of N-terminal/C-terminal His-tagged human recombinant G9a (913 to 1193 residues) at higher concentration using histone H3 (1 to 21 residues) as substrate and 3H-SAM as cosubstrate incubated for 60 mins by scintillation counter analysis
T1 sequence (whole entry): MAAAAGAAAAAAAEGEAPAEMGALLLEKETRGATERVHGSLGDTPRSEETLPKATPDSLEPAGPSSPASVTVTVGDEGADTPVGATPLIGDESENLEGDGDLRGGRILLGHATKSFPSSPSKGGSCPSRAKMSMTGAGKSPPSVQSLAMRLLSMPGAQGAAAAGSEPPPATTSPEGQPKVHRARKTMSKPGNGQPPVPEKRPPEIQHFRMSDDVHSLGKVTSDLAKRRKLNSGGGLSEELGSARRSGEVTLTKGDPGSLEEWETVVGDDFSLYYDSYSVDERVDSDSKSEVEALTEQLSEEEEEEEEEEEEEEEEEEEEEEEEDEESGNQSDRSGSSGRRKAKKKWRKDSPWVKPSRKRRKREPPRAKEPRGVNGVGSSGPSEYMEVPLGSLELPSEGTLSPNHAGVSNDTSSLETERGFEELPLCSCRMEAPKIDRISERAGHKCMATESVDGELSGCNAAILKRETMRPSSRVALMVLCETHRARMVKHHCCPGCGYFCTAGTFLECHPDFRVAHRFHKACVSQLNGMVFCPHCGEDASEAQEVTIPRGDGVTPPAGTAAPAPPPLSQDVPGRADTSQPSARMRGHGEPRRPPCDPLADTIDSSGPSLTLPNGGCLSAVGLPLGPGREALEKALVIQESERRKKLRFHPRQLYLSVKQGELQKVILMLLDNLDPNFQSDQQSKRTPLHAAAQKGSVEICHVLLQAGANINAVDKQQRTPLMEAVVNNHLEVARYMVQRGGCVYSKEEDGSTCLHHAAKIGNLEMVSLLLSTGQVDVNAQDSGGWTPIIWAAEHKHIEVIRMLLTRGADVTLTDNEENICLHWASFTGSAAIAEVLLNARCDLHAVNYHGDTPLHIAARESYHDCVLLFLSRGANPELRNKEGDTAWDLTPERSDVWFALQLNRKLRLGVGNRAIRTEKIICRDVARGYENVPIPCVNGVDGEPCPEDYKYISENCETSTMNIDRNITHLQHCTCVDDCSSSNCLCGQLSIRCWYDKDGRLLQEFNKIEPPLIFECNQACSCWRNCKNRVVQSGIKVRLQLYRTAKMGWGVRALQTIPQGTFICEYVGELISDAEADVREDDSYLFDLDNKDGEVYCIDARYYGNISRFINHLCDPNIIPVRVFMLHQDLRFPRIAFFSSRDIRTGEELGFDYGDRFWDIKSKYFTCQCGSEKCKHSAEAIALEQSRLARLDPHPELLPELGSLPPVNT

[2] = target: T2, Protein arginine N-methyltransferase 7 (Homo sapiens) (UniProt Q9NVM4); assay: Inhibition of PRMT7 catalysed methylation of HNRNPA1 at R194 residue in HEK293T cells assessed as increase in ratio of abundance of unmethylated over methylated peptides at 10 to 50 uM measured after 24 to 48 hrs by UHPLC- MS/MS analysis; format: cell-based; settings: dose 10-50 µM, time 24-48 hrs
T2 sequence (whole entry): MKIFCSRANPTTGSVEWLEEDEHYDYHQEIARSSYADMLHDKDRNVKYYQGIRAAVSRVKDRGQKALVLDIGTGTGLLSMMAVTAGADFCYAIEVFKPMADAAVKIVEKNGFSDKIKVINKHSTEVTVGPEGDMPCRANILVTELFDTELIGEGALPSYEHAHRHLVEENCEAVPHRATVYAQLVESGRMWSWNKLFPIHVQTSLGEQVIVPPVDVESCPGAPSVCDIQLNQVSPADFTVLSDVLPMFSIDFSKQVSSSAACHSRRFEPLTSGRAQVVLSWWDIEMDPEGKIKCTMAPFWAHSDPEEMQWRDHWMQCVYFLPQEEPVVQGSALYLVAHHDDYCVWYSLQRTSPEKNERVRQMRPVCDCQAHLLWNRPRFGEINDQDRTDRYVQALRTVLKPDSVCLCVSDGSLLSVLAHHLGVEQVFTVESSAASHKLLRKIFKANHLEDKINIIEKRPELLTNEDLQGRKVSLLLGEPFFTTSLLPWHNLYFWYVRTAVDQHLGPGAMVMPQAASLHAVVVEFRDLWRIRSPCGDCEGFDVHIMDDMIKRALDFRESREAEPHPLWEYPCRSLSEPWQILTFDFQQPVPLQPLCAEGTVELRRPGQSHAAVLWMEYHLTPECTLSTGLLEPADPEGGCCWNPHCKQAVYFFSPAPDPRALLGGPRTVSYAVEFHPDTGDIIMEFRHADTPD

[3] = target: T3, Histone-lysine N-methyltransferase SETD7 (Homo sapiens) (UniProt Q8WTS6); assay: Inhibition of N-terminal/C-terminal His/GST-tagged human recombinant SET7/9 (2 to 366 residues) at higher concentration using core histone as substrate and 3H-SAM as cosubstrate incubated for 60 mins by scintillation counter analysis
T3 sequence (whole entry): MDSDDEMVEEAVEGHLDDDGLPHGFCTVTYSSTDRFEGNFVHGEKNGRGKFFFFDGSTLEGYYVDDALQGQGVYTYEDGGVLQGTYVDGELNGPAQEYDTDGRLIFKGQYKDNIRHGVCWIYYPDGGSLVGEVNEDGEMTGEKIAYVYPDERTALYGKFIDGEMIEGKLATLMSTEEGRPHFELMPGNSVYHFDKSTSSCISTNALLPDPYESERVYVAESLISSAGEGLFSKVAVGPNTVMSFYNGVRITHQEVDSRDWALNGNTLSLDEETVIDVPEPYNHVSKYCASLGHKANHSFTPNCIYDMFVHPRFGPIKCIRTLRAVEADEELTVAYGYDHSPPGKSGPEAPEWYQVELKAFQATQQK

[4] = target: T2, Protein arginine N-methyltransferase 7 (Homo sapiens); assay: Inhibition of PRMT7 catalysed methylation of HNRNPA1 at R194 residue in HEK293T cells assessed as increase in ratio of abundance of unmethylated over methylated peptides at 10 to 50 uM by UHPLC- MS/MS analysis; format: cell-based; settings: dose 10-50 µM, time 24-48 hrs, TDE = time-dependent effect
[5] = target: Histone-lysine N-methyltransferase SUV39H2 (Homo sapiens) (UniProt Q9H5I1); assay: Inhibition of N-terminal/C-terminal His/GST-tagged human recombinant SUV39H2 (46 to 410 residues) at higher concentration using H3 histone as substrate and 3H-SAM as cosubstrate incubated for 60 mins by scintillation counter analysis
[6] = target: T2, Protein arginine N-methyltransferase 7 (Homo sapiens); assay: Inhibition of PRMT7 catalysed methylation of HSP70 at R469 residue in HEK293T cells assessed as increase in ratio of abundance of unmethylated over methylated peptides measured after 24 to 48 hrs by UHPLC- MS/MS analysis; format: cell-based; settings: dose 10-50 µM, time 24-48 hrs
[7] = target: T2, Protein arginine N-methyltransferase 7 (Homo sapiens); assay: Inhibition of PRMT7 catalysed methylation of HSP70 at R469 residue in HEK293T cells assessed as increase in ratio of abundance of unmethylated over methylated peptides at 10 to 50 uM measured after 24 to 48 hrs by UHPLC- MS/MS analysis; format: cell-based; settings: dose 10-50 µM, time 24-48 hrs

Chain of Histone-lysine N-methyltransferase SUV39H2 (Homo sapiens) (Q9H5I1 whole entry, the tested form may be a part): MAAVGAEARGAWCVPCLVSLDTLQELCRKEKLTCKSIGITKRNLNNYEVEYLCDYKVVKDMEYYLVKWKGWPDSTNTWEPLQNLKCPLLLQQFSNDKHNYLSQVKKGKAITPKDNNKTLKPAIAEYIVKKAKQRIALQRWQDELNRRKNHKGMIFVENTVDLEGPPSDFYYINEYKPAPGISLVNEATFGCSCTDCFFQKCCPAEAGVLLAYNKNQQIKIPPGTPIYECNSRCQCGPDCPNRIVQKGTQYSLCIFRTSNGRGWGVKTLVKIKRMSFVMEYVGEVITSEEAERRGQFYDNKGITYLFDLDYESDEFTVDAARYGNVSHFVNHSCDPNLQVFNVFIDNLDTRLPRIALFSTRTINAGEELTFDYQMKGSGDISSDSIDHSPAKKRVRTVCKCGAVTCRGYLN

Compound: COC(=O)c1cc(O)c2cc(NC(=O)NCCCNC(=N)NC[C@H]3O[C@@H](n4cnc5c(N)ncnc54)[C@H](O)[C@@H]3O)cc(C(F)(F)F)c2c1
- inhibition [1]: inactive
- inhibition [2]: Active
- inhibition [3]: inactive
- inhibition [4]: Tde
- inhibition [5]: inactive
- inhibition [6]: Dose-Dependent Effect
- inhibition [7]: Active
